Test results published in publication PMC7571065, “Design, Synthesis, In Vitro and In Silico Studies of New Thiazolylhydrazine-Piperazine Derivatives as Selective MAO-A Inhibitors” (Molecules, 2020).
“Also recorded” adds a separate entry of the source. Read-outs that look alike come from different tables or passages of the source.

Experiments:
MAO-A [1] = biological target: T1, MAO-A (Homo sapiens, UniProt P21397); assay: In vitro fluorometric MAO-A inhibition assay (Ampliflu Red, tyramine); format: biochemical; details: for inhibition at 10 µM / inhibition at 1 µM / inhibition at 0.1 µM / inhibition at 0.01 µM / inhibition at 0.001 µM: read-out: MAO-A % Inhibition; for IC50: mean ± SD, read-out: IC50 against MAO-A
T1 construct: purchased Sigma-Aldrich (Steinheim, Germany)
T1 sequence (P21397 1-527): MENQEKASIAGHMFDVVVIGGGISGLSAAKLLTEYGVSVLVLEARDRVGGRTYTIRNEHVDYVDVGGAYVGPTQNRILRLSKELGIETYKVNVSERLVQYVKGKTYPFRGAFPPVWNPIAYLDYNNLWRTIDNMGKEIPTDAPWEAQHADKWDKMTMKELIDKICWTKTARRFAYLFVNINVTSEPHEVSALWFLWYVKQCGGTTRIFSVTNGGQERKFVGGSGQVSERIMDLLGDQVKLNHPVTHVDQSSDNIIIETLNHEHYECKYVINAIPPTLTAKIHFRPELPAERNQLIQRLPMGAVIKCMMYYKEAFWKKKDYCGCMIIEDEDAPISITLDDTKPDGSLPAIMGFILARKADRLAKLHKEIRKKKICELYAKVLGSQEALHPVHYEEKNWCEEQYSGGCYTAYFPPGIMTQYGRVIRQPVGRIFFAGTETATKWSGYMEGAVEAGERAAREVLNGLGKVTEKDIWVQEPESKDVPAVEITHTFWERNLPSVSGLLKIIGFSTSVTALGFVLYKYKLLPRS

recombinant MAO-B = biological target: T2, recombinant MAO-B (Homo sapiens, UniProt P27338); assay: In vitro fluorometric MAO-B inhibition assay (Ampliflu Red, tyramine); format: biochemical
T2 construct: purchased Sigma-Aldrich (Steinheim, Germany)
T2 sequence (P27338 1-520): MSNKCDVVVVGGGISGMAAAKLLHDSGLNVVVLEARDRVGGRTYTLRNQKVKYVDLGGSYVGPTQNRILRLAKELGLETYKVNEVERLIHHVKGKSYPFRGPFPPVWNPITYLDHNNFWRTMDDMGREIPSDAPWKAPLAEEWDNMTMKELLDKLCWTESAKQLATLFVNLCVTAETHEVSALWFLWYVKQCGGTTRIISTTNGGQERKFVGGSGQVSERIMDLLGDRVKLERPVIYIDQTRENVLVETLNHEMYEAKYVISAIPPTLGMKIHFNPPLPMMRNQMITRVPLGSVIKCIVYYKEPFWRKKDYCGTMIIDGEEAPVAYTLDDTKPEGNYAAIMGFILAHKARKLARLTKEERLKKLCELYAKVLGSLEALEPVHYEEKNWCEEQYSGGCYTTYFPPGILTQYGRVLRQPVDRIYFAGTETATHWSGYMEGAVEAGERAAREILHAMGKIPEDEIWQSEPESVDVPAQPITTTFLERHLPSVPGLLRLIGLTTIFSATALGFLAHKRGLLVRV

MAO-A [2] = biological target: T1, MAO-A; assay: Enzyme kinetic studies (Lineweaver-Burk and secondary plot); format: biochemical
Experimental: The same materials were used in the MAO inhibition assay. […] All processes were evaluated in quadruplicate. The results were analyzed by means of Microsoft Office Excel 2013 as Lineweaver-Burk diagrams. […] of the Lineweaver-Burk plots were replotted versus the inhibitor concentration, and the Ki values were determined from the x-axis intercept as Ki.
The MAO-A inhibition mechanism was defined by conducting enzyme kinetics experiments utilizing a protocol close to that of the MAO inhibition assay. […] To estimate the type of inhibition of this compound, linear Lineweaver-Burk graphs were used. The velocity curves of the substrates were reported in the absence and presence of compound 3e. In each case, the initial velocity measurements were collected at various concentrations of substrates (tyramine) varying from 20 μM to 0.625 μM.
According to the Lineweaver-Burk plots, the type of inhibition consists of two general classes: reversible and irreversible. Mixed-type, uncompetitive, competitive and noncompetitive inhibition types are included in the reversible inhibition. […] Competitive inhibition is seen if the lines intersect on the y-axis, and the slopes and x-intercepts are different. On the contrary, non-competitive inhibition has the opposite result: the plotted lines have the same x-intercept but there are diverse slopes and y-intercepts.

Cytotoxicity MTT assay = format: cell-based; details: mouse, NIH/3T3 mouse embryonic fibroblast cells, tested 1 mM to 0.000316 mM, read-out: IC50 NIH/3T3 Cell Line
Experimental: The NIH/3T3 mouse embryonic fibroblast cell line (ATCC® CRL-1658 ™, London, UK) was used for cytotoxicity assays. The incubation period of NIH/3T3 cells was based on the supplier’s recommendation. NIH/3T3 cells were seeded at 1 × 10^4 cells into each well of 96-well plates. MTT assay was carried out in accordance with the standards previously described manner.

Row | SMILES | inhibition at 1000 µM (MAO-A [1]; 10^−3 M) | inhibition at 100 µM (MAO-A [1]; 10^−4 M) | inhibition at 1000 µM (recombinant MAO-B; 10^−3 M) | inhibition at 100 µM (recombinant MAO-B; 10^−4 M) | melting point | other results
1 | COc1ccc(-c2csc(NN=Cc3ccc(N4CCN(C)CC4)cc3)n2)cc1 [Compound 3c, 2-{2-[4-(4-Methylpiperazin-1-yl)benzylidene]hydrazinyl}-4-(4-methoxyphenyl)thiazole] | 92.1 ± 2.22% | 87.7 ± 1.87% | 30.3 ± 0.812% | 21.5 ± 0.879% | 226 to 228 °C | inhibition at 10 µM (MAO-A [1]; 10^−5 M): 75.4 ± 1.43%; inhibition at 1 µM (MAO-A [1]; 10^−6 M): 71 ± 1.09%; inhibition at 0.1 µM (MAO-A [1]; 10^−7 M): 48.3 ± 0.869%; inhibition at 0.01 µM (MAO-A [1]; 10^−8 M): 30.9 ± 0.711%; inhibition at 0.001 µM (MAO-A [1]; 10^−9 M): 21.8 ± 0.638%; IC50 (MAO-A [1]): 188 ± 8 nM
2 | CN1CCN(c2ccc(C=NNc3nc(-c4ccc(Cl)cc4Cl)cs3)cc2)CC1 [Compound 3l, 2-{2-[4-(4-Methylpiperazin-1-yl)benzylidene]hydrazinyl}-4-(2,4-chlorophenyl)thiazole] |  |  |  |  |  | MAO-A % Inhibition (MAO-A [1]; 10^−3 M): 73.521 ± 1.180%; MAO-A % Inhibition (MAO-A [1]; 10^−4 M): 40.578 ± 0.914%; MAO-B % Inhibition (recombinant MAO-B; 10^−3 M): 33.667 ± 0.991%; MAO-B % Inhibition (recombinant MAO-B; 10^−4 M): 21.373 ± 0.769%
3 | Cc1ccc(-c2csc(NN=Cc3ccc(N4CCN(C)CC4)cc3)n2)cc1 [Compound 3b, 2-{2-[4-(4-Methylpiperazin-1-yl)benzylidene]hydrazinyl}-4-(4-methylphenyl)thiazole] | 71 ± 1.11% | 31.5 ± 0.732% | 34.6 ± 0.886% | 27.6 ± 0.649% | 252 to 254 °C | 
4 | CN1CCN(c2ccc(C=NNc3nc(-c4ccc(Br)cc4)cs3)cc2)CC1 [Compound 3h, 2-{2-[4-(4-Methylpiperazin-1-yl)benzylidene]hydrazinyl}-4-(4-bromophenyl)thiazole] | 70.8 ± 1.32% | 37.9 ± 0.796% | 34.4 ± 0.824% | 22.1 ± 0.796% | 253 to 255 °C | 
5 | CN1CCN(c2ccc(C=NNc3nc(-c4ccc(C#N)cc4)cs3)cc2)CC1 [Compound 3d, 2-{2-[4-(4-Methylpiperazin-1-yl)benzylidene]hydrazinyl}-4-(4-cyanophenyl)thiazole] | 90.2 ± 2.04% | 84.4 ± 1.81% | 36.6 ± 0.903% | 26 ± 0.836% | 234 to 235 °C | inhibition at 10 µM (MAO-A [1]; 10^−5 M): 81.1 ± 1.94%; inhibition at 1 µM (MAO-A [1]; 10^−6 M): 79 ± 1.25%; inhibition at 0.1 µM (MAO-A [1]; 10^−7 M): 49.6 ± 0.811%; inhibition at 0.01 µM (MAO-A [1]; 10^−8 M): 30.6 ± 0.699%; inhibition at 0.001 µM (MAO-A [1]; 10^−9 M): 18.1 ± 0.593%; IC50 (MAO-A [1]): 117 ± 4 nM
6 | CN1CCN(c2ccc(C=NNc3nc(-c4ccc(F)cc4F)cs3)cc2)CC1 [Compound 3k, 2-{2-[4-(4-Methylpiperazin-1-yl)benzylidene]hydrazinyl}-4-(2,4-difluorophenyl)thiazole] | 80 ± 1.3% | 35.1 ± 0.833% | 29.6 ± 0.782% | 23.2 ± 0.876% | 250 to 251 °C | 
7 | CN1CCN(c2ccc(C=NNc3nc(-c4ccccc4)cs3)cc2)CC1 [Compound 3a, 2-{2-[4-(4-Methylpiperazin-1-yl)benzylidene]hydrazinyl}-4-phenylthiazole] | 68.1 ± 1.03% | 34.3 ± 0.851% | 32.3 ± 0.985% | 25 ± 0.721% | 254 to 255 °C | 
8 | Cc1ccc(-c2csc(NN=Cc3ccc(N4CCN(C)CC4)cc3)n2)c(C)c1 [Compound 3j, 2-{2-[4-(4-Methylpiperazin-1-yl)benzylidene]hydrazinyl}-4-(2,4-dimethylphenyl)thiazole] | 72.3 ± 1.03% | 38.1 ± 0.798% | 28.1 ± 0.901% | 20 ± 0.792% | 238 to 240 °C | 
9 | C#CCN(C)CCCOc1ccc(Cl)cc1Cl [Clorgiline, clorgiline, reference compound] |  |  |  |  |  | inhibition at 0.001 µM (MAO-A [1]): 22.5 ± 0.736%; inhibition at 0.01 µM (MAO-A [1]): 34.2 ± 0.841%; inhibition at 0.1 µM (MAO-A [1]): 65.2 ± 0.997%; inhibition at 1 µM (MAO-A [1]): 78.5 ± 1.02%; inhibition at 10 µM (MAO-A [1]): 87.6 ± 1.46%
10 | CN1CCN(c2ccc(C=NNc3nc(-c4ccc(F)cc4)cs3)cc2)CC1 [Compound 3f, 2-{2-[4-(4-Methylpiperazin-1-yl)benzylidene]hydrazinyl}-4-(4-fluorophenyl)thiazole] | 75.9 ± 1.24% | 40.7 ± 0.98% | 30.7 ± 0.912% | 24.7 ± 0.854% | 247 to 249 °C | 
11 | CN1CCN(c2ccc(C=NNc3nc(-c4ccc(Cl)cc4)cs3)cc2)CC1 [Compound 3g, 2-{2-[4-(4-Methylpiperazin-1-yl)benzylidene]hydrazinyl}-4-(4-chlorophenyl)thiazole] | 73.7 ± 1.11% | 33.5 ± 0.833% | 31.2 ± 0.789% | 24 ± 0.623% | 249 to 250 °C | 
12 | CN1CCN(c2ccc(C=NNc3nc(-c4ccc(-c5ccccc5)cc4)cs3)cc2)CC1 [Compound 3i, 2-{2-[4-(4-Methylpiperazin-1-yl)benzylidene]hydrazinyl}-4-([1,1’-biphenyl]-4-yl)thiazole] | 66.2 ± 0.972% | 41.5 ± 0.87% | 30.6 ± 0.836% | 21.5 ± 0.809% | 275 to 276 °C | 
13 | CN1CCN(c2ccc(C=NNc3nc(-c4ccc([N+](=O)[O-])cc4)cs3)cc2)CC1 [Compound 3e, 2-{2-[4-(4-Methylpiperazin-1-yl)benzylidene]hydrazinyl}-4-(4-nitrophenyl)thiazole] | 95.3 ± 1.9% | 90.8 ± 1.73% | 39.1 ± 0.81% | 28.2 ± 0.791% |  | inhibition at 10 µM (MAO-A [1]; 10^−5 M): 85 ± 1.03%; inhibition at 1 µM (MAO-A [1]; 10^−6 M): 82.4 ± 1.39%; inhibition at 0.1 µM (MAO-A [1]; 10^−7 M): 63.9 ± 0.893%; inhibition at 0.01 µM (MAO-A [1]; 10^−8 M): 42.6 ± 0.835%; inhibition at 0.001 µM (MAO-A [1]; 10^−9 M): 23 ± 0.715%; IC50 (MAO-A [1]): 57 ± 2 nM; inhibition type (MAO-A [2]; Lineweaver-Burk plots): competitive and reversible; also recorded: reversible and competitive; Ki (MAO-A [2]; secondary plot, substrate tyramine, read-out: Ki (steady-state inhibition constant)): 11 nM; IC50 (Cytotoxicity MTT assay): > 1 mM
